{"source": "patent US20120009280A1", "about": "“METHOD OF REDUCING THE RATE OF DEGRADATION OF A BIOLOGICAL MATERIAL” (Bio-Energy Ingredients Limited, priority 2009, published 2012)", "type_in_all_cases": "cell-based", "key": {"[1]": {"system": "mould", "test": "Mould count of spent brewer's / wet distiller's grains stored at ambient temperature", "experimental": "(§1) Samples of Portion 1 (“AR”), Portion 3 (“SO”) and Portion 5 (“SH”) were then delivered to a microbiological testing facility about 15 kilometres from the treatment laboratory. Each was tested for initial total microbial, yeast and mould counts, respectively.\n(§2) Separate untreated samples were similarly stored under insect-proof screens at ambient temperature for seven days (as shown in Tables 1 and 2). During the trial period the ambient temperature ranged from 11 to 33 degrees C.\n(§3) The free moisture content on the initial spent brewer's grains was determined to be 78.1% m/m. After exposure to the environment for seven days, all of the samples were tested at a South African National Accreditation System (SANAS) approved microbiological testing facility. Each was tested for total micro-organism, yeast and mould counts to determine the affect of the various treatments. A similar procedure to that described in K. A. Rosentrater et al, Food Bioprocess Technol (2008) was used for the microbiological evaluation.\n(§4) At the laboratory, the samples were thoroughly mixed and initially split into a first portion (Portion 1) and a second portion (Portion 2). Portion 1 was left untreated. A sample of Portion 1, was delivered immediately to a microbiological testing facility about 15 kilometres away from the treatment laboratory and was tested for initial total microbial, yeast and mould counts, respectively. No water removal prior to treatment was done in this experiment as was the case in Example 8 wherein a similar wet material was partially dewatered by pressing and the residue treated with 10% (w/w/) calcium oxide.\nSamples from Portion 2 were subjected to treatment with varying amounts of a powdered, commercially-available calcium oxide containing approximately 94% calcium oxide (CaO) as shown in Table 32. […] The samples were stored in batches (according to the calcium oxide treatment) under insect-proof screens at ambient temperature for fifty six days. Separate untreated samples were similarly stored under insect-proof screens at ambient temperature for a total of 56 days. During the trial period the ambient temperature ranged from 10 to 30 degrees C. As this period was the southern hemisphere spring/early summer, the humidity as well as ambient temperatures varied widely.\nas §3, with “79.4%” for “78.1%”\n(§5) Samples from each treatment were drawn every seven days. No further calcium oxide treatment or agitation took place after the initial mix. In each case the entire sample was isolated and delivered to the microbiological testing facility.\n(§6) The calcium oxide treatment trial described in Example 9 wherein wet distiller's grains were treated with 2.5%, 5% and 10.0% calcium oxide, respectively, versus untreated material was repeated using lower doses of calcium oxide. In this trial the same source of wet distiller's grains (again with now partial water removal prior to treatment) was treated. Also, the same protocol as described in Example 9 was applied, but at lower doses of calcium oxide i.e. 0.5%, 1.0%, 1.5%, 2.0% and 2.5%, respectively, versus untreated material.\n(§7) In this trial the same source of wet distiller's grains (again with now partial water removal prior to treatment) was treated. Also, the same protocol as described in Example 9 was applied."}, "[2]": {"system": "yeast", "test": "Yeast count of spent brewer's / wet distiller's grains stored at ambient temperature"}, "[3]": {"system": "yeast", "test": "Yeast count of spent brewer's / wet distiller's grains stored at ambient temperature", "conditions": "dose 10% (w/w)", "experimental": "as §1, §2, §3, §4\nSamples from Portion 2 were subjected to treatment with varying amounts of a powdered, commercially-available calcium oxide containing approximately 94% calcium oxide (CaO) as shown in Table 32. The treatments varied from 2.5 to 10% (w/w) calcium oxide addition. The samples were stored in batches (according to the calcium oxide treatment) under insect-proof screens at ambient temperature for fifty six days. Separate untreated samples were similarly stored under insect-proof screens at ambient temperature for a total of 56 days. During the trial period the ambient temperature ranged from 10 to 30 degrees C. As this period was the southern hemisphere spring/early summer, the humidity as well as ambient temperatures varied widely.\nas §3, with “79.4%” for “78.1%”\nas §5, §6, §7"}}}
{"smiles": "[Ca+2].[O-2]", "note": "[CaO powder]", "values": [{"measurement": "Mould Count", "setting": "[1]; dose 5% (w/w), week 0", "result": "<10", "unit": "cfu/gram"}, {"measurement": "Mould Count", "setting": "[1]; dose 5% (w/w), week 1", "result": "<10", "unit": "cfu/gram"}, {"measurement": "Mould Count", "setting": "[1]; dose 5% (w/w), week 2", "result": "<10", "unit": "cfu/gram"}, {"measurement": "Mould Count", "setting": "[1]; dose 5% (w/w), week 3", "result": "<10", "unit": "cfu/gram"}, {"measurement": "Mould Count", "setting": "[1]; dose 5% (w/w), week 4", "result": "<10", "unit": "cfu/gram"}, {"measurement": "Mould Count", "setting": "[1]; dose 5% (w/w), week 5", "result": "<10", "unit": "cfu/gram"}, {"measurement": "Mould Count", "setting": "[1]; dose 5% (w/w), week 6", "result": "<10", "unit": "cfu/gram"}, {"measurement": "Mould Count", "setting": "[1]; dose 5% (w/w), week 7", "result": "<10", "unit": "cfu/gram"}, {"measurement": "Mould Count", "setting": "[1]; dose 5% (w/w), week 8", "result": "<10", "unit": "cfu/gram"}, {"measurement": "Mould Count", "setting": "[1]; dose 5% (w/w), week 9", "result": "<10", "unit": "cfu/gram"}, {"measurement": "Mould Count", "setting": "[1]; dose 10% (w/w), week 0", "result": "<10", "unit": "cfu/gram"}, {"measurement": "Mould Count", "setting": "[1]; dose 10% (w/w), week 1", "result": "<10", "unit": "cfu/gram"}, {"measurement": "Mould Count", "setting": "[1]; dose 10% (w/w), week 2", "result": "<10", "unit": "cfu/gram"}, {"measurement": "Mould Count", "setting": "[1]; dose 10% (w/w), week 3", "result": "<10", "unit": "cfu/gram"}, {"measurement": "Mould Count", "setting": "[1]; dose 10% (w/w), week 4", "result": "<10", "unit": "cfu/gram"}, {"measurement": "Mould Count", "setting": "[1]; dose 10% (w/w), week 5", "result": "<10", "unit": "cfu/gram"}, {"measurement": "Mould Count", "setting": "[1]; dose 10% (w/w), week 6", "result": "<10", "unit": "cfu/gram"}, {"measurement": "Mould Count", "setting": "[1]; dose 10% (w/w), week 7", "result": 3500, "unit": "cfu/gram"}, {"measurement": "Mould Count", "setting": "[1]; dose 10% (w/w), week 8", "result": "<10", "unit": "cfu/gram"}, {"measurement": "Mould Count", "setting": "[1]; dose 10% (w/w), week 9", "result": "<10", "unit": "cfu/gram"}, {"measurement": "Yeast Count", "setting": "[2]; dose 5% (w/w), week 0", "result": "<10", "unit": "cfu/gram"}, {"measurement": "Yeast Count", "setting": "[2]; dose 5% (w/w), week 1", "result": "<10", "unit": "cfu/gram"}, {"measurement": "Yeast Count", "setting": "[2]; dose 5% (w/w), week 2", "result": "<10", "unit": "cfu/gram"}, {"measurement": "Yeast Count", "setting": "[2]; dose 5% (w/w), week 3", "result": "<10", "unit": "cfu/gram"}, {"measurement": "Yeast Count", "setting": "[2]; dose 5% (w/w), week 4", "result": "<10", "unit": "cfu/gram"}, {"measurement": "Yeast Count", "setting": "[2]; dose 5% (w/w), week 5", "result": "<10", "unit": "cfu/gram"}, {"measurement": "Yeast Count", "setting": "[2]; dose 5% (w/w), week 6", "result": "<10", "unit": "cfu/gram"}, {"measurement": "Yeast Count", "setting": "[2]; dose 5% (w/w), week 7", "result": "<10", "unit": "cfu/gram"}, {"measurement": "Yeast Count", "setting": "[2]; dose 5% (w/w), week 8", "result": "<10", "unit": "cfu/gram"}, {"measurement": "Yeast Count", "setting": "[2]; dose 5% (w/w), week 9", "result": "<10", "unit": "cfu/gram"}, {"measurement": "Yeast Count", "setting": "[2]; dose 10% (w/w), week 0", "result": "<10", "unit": "cfu/gram"}, {"measurement": "Yeast Count", "setting": "[2]; dose 10% (w/w), week 1", "result": "<10", "unit": "cfu/gram"}, {"measurement": "Yeast Count", "setting": "[2]; dose 10% (w/w), week 2", "result": "<10", "unit": "cfu/gram"}, {"measurement": "Yeast Count", "setting": "[2]; dose 10% (w/w), week 7", "result": "<10", "unit": "cfu/gram"}, {"measurement": "Yeast Count", "setting": "[2]; dose 10% (w/w), week 8", "result": "<10", "unit": "cfu/gram"}, {"measurement": "Yeast Count", "setting": "[3]; week 3", "result": "<10", "unit": "cfu/gram"}, {"measurement": "Yeast Count", "setting": "[3]; week 4", "result": "<10", "unit": "cfu/gram"}, {"measurement": "Yeast Count", "setting": "[3]; week 5", "result": "<10", "unit": "cfu/gram"}, {"measurement": "Yeast Count", "setting": "[3]; week 6", "result": "<10", "unit": "cfu/gram"}, {"measurement": "Yeast Count", "setting": "[3]; week 9", "result": "<10", "unit": "cfu/gram"}]}
